Laboratory results reported in patent US11912723B2, “KRAS modulators and uses thereof” (Quanta Therapeutics, Inc., priority 2022, dated 2024).

What was measured:
[1] = molecular target: T1, GST-tagged KRAS G12D (2-169) (Homo sapiens, UniProt P01116, G12D); assay: Nucleotide exchange assay (NEA), HTRF of SOS-mediated GTP-DY-647P1 binding; type: biochemical; settings: 5 nM GST-KRAS G12D, 20 nM SOScat, 150 nM GTP; compound 1 h at RT
T1 construct: GST-tagged KRAS^G12D (2-169, Reaction Biology, MSC-11-539); purchased Reaction Biology MSC-11-539 (KRAS G12D); MSC-11-502 (SOS1cat)
T1 sequence (P01116 2-169 isoform P01116-2 G12D): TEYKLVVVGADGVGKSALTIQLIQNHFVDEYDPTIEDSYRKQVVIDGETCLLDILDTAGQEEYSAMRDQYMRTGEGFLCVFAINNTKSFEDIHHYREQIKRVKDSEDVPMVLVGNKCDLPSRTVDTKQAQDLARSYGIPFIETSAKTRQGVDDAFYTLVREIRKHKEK
Procedure, shortened: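 After 1 h RT preincubation of compound with KRAS, SOS1cat (20 nM final) and fluorescent GTP analog (150 nM) were added to 5 nM KRAS; HTRF (anti-GST Tb donor) followed at RT for up to 90 min. % inhibition relative to DMSO and no-SOS1 blank, 4-parameter curve fit.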

[2] = system: AGS (KRAS G12D) cells, phospho-ERK; assay: pERK In Cell Western (ICW) assay (Method B); type: cell-based; settings: Homo sapiens, 3 hours
Procedure, shortened: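 AGS cells seeded at 5,000/well, grown overnight, then treated 3 h at 37 °C with ½-log 10-point dilutions (top 10 μM). Fixed cells stained for phospho-ERK, normalized to DRAQ5 DNA signal and to DMSO control; IC50 from 4-parameter variable-slope fit.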

CN(C)C(=O)c1cc2n(n1)CCCN(c1nc(OC[C@@]34CCCN3C[C@H](F)C4)nc3c1CN(C)[C@@]1(CCCc4ccccc41)C3)C2 [Compound 72, 5-[(7S)-2-[[(2R,8S)-2-fluoro-1,2,3,5,6,7-hexahydropyrrolizin-8-yl]methoxy]-6-methyl-spiro[5,8-dihydropyrido[4,3-d]pyrimidine-7,1′-tetralin]-4-yl]-N,N-dimethyl-4,6,7,8-tetrahydropyrazolo[1,5-a][1,4]diazepine-2-carboxamide]
IC50 [1]: < 10 nM
IC50 [2]: 0.1 to 1 µM

CN1Cc2c(nc(OC[C@@]34CCCN3C[C@H](F)C4)nc2N2CCCn3nc(N)c(Cl)c3C2)C[C@]12CCCc1ccccc12 [Compound 79, 3-chloro-5-[(7S)-2-[[(2R,8S)-2-fluoro-1,2,3,5,6,7-hexahydropyrrolizin-8-yl]methoxy]-6-methyl-spiro[5,8-dihydropyrido[4,3-d]pyrimidine-7,1′-tetralin]-4-yl]-4,6,7,8-tetrahydropyrazolo[1,5-a][1,4]diazepin-2-amine]
IC50 [1]: < 10 nM
IC50 [2]: 1 to 10 µM

C#Cc1c(C(=O)N(C)C)nn2c1CN(c1nc(OC[C@@]34CCCN3C[C@H](F)C4)nc3c1CN(C)[C@@]1(CCCc4ccccc41)C3)CCC2 [Compound 81, 3-ethynyl-5-[(7S)-2-[[(2R,8S)-2-fluoro-1,2,3,5,6,7-hexahydropyrrolizin-8-yl]methoxy]-6-methyl-spiro[5,8-dihydropyrido[4,3-d]pyrimidine-7,1′-tetralin]-4-yl]-N,N-dimethyl-4,6,7,8-tetrahydropyrazolo[1,5-a][1,4]diazepine-2-carboxamide]
IC50 [1]: < 10 nM
IC50 [2]: 0.01 to 0.1 µM

CN1Cc2c(nc(OC[C@@]34CCCN3C[C@H](F)C4)nc2N2C[C@H]3CC[C@@H](C2)N3)C[C@]12CCCc1ccccc12 [Compound 84, (7S)-4-[(1R,5S)-3,8-diazabicyclo[3.2.1]octan-3-yl]-2-[[(2R,8S)-2-fluoro-1,2,3,5,6,7-hexahydropyrrolizin-8-yl]methoxy]-6-methyl-spiro[5,8-dihydropyrido[4,3-d]pyrimidine-7,1′-tetralin]]
IC50 [1]: < 10 nM
IC50 [2]: 1 to 10 µM

Cc1nc(-c2nn3c(c2Cl)CN(c2nc(OC[C@@]45CCCN4C[C@H](F)C5)nc4c2CN(C)[C@@]2(CCCc5ccccc52)C4)CCC3)no1 [Compound 87, 3-[3-chloro-5-[(7S)-2-[[(2R,8S)-2-fluoro-1,2,3,5,6,7-hexahydropyrrolizin-8-yl]methoxy]-6-methyl-spiro[5,8-dihydropyrido[4,3-d]pyrimidine-7,1′-tetralin]-4-yl]-4,6,7,8-tetrahydropyrazolo[1,5-a][1,4]diazepin-2-yl]-5-methyl-1,2,4-oxadiazole]
IC50 [1]: < 10 nM
IC50 [2]: 0.1 to 1 µM

Cc1nnc(-c2nn3c(c2Cl)CN(c2nc(OC[C@@]45CCCN4C[C@H](F)C5)nc4c2CN(C)[C@@]2(CCCc5ccccc52)C4)CCC3)n1C [Compound 90, (7S)-4-[3-chloro-2-(4,5-dimethyl-1,2,4-triazol-3-yl)-4,6,7,8-tetrahydropyrazolo[1,5-a][1,4]diazepin-5-yl]-2-[[(2R,8S)-2-fluoro-1,2,3,5,6,7-hexahydropyrrolizin-8-yl]methoxy]-6-methyl-spiro[5,8-dihydropyrido[4,3-d]pyrimidine-7,1′-tetralin]]
IC50 [1]: < 10 nM
IC50 [2]: 0.01 to 0.1 µM

CN(C)C(=O)c1nn2c(c1Cl)CN(c1nc(OC[C@@]34CCCN3C[C@H](F)C4)nc3c1CN(C)[C@@]1(CCc4cccc(O)c41)C3)CCC2 [Compound 96, 3-chloro-5-[(7S)-2-[[(2R,8S)-2-fluoro-1,2,3,5,6,7-hexahydropyrrolizin-8-yl]methoxy]-7′-hydroxy-6-methyl-spiro[5,8-dihydropyrido[4,3-d]pyrimidine-7,1′-indane]-4-yl]-N,N-dimethyl-4,6,7,8-tetrahydropyrazolo[1,5-a][1,4]diazepine-2-carboxamide]
IC50 [1]: < 10 nM
IC50 [2]: 0.01 to 0.1 µM

CN(C)CC1(COc2nc3c(c(N4CCCn5nc(C(=O)N(C)C)c(Cl)c5C4)n2)CN(C)[C@@]2(CCCc4ccccc42)C3)CC1(F)F (stereo partly drawn) [Compound 97, 3-chloro-5-[(7S)-2-[[1-[(dimethylamino)methyl]-2,2-difluoro-cyclopropyl]methoxy]-6-methyl-spiro[5,8-dihydropyrido[4,3-d]pyrimidine-7,1′-tetralin]-4-yl]-N,N-dimethyl-4,6,7,8-tetrahydropyrazolo[1,5-a][1,4]diazepine-2-carboxamide]
IC50 [1]: < 10 nM
IC50 [2]: 1 to 10 µM

CN1Cc2c(nc(OC[C@@]34CCCN3C[C@H](F)C4)nc2N2CCCn3nc(-c4nnnn4C)c(Cl)c3C2)C[C@]12CCCc1ccccc12 [Compound 99, (7S)-4-[3-chloro-2-(1-methyltetrazol-5-yl)-4,6,7,8-tetrahydropyrazolo[1,5-a][1,4]diazepin-5-yl]-2-[[(2R,8S)-2-fluoro-1,2,3,5,6,7-hexahydropyrrolizin-8-yl]methoxy]-6-methyl-spiro[5,8-dihydropyrido[4,3-d]pyrimidine-7,1′-tetralin]]
IC50 [1]: < 10 nM
IC50 [2]: 0.1 to 1 µM
